# Legend:
# [1] = Aqueous solubility of compound at 1 mg incubated for 10 mins; assay type: physicochemical
# BE(2)-C [2] = test: Antiproliferative activity against human BE2C cells incubated for 48 hrs by MTT assay; assay type: functional, cell-based
# Tubulin = Tubulin (Sus scrofa, UniProt P02554+P02550); test: Inhibition of tubulin polymerization of pig brain by absorbance based assay
# A549 = test: Antiproliferative activity against human A549 cells incubated for 48 hrs by MTT assay; assay type: functional, cell-based; details: A549, 48 h
# U-87 MG = test: Antiproliferative activity against human U-87 MG cells incubated for 48 hrs by MTT assay; assay type: functional, cell-based, U-87MG ATCC
# HCT-116 = test: Antiproliferative activity against human HCT-116 cells incubated for 48 hrs by MTT assay; assay type: functional, cell-based; details: HCT-116, 48 h
# [3] = target: T1, Protein deacetylase HDAC6 (Homo sapiens, UniProt Q9UBN7); test: Inhibition of HDAC6 (unknown origin)
# T1 sequence (Q9UBN7 whole entry): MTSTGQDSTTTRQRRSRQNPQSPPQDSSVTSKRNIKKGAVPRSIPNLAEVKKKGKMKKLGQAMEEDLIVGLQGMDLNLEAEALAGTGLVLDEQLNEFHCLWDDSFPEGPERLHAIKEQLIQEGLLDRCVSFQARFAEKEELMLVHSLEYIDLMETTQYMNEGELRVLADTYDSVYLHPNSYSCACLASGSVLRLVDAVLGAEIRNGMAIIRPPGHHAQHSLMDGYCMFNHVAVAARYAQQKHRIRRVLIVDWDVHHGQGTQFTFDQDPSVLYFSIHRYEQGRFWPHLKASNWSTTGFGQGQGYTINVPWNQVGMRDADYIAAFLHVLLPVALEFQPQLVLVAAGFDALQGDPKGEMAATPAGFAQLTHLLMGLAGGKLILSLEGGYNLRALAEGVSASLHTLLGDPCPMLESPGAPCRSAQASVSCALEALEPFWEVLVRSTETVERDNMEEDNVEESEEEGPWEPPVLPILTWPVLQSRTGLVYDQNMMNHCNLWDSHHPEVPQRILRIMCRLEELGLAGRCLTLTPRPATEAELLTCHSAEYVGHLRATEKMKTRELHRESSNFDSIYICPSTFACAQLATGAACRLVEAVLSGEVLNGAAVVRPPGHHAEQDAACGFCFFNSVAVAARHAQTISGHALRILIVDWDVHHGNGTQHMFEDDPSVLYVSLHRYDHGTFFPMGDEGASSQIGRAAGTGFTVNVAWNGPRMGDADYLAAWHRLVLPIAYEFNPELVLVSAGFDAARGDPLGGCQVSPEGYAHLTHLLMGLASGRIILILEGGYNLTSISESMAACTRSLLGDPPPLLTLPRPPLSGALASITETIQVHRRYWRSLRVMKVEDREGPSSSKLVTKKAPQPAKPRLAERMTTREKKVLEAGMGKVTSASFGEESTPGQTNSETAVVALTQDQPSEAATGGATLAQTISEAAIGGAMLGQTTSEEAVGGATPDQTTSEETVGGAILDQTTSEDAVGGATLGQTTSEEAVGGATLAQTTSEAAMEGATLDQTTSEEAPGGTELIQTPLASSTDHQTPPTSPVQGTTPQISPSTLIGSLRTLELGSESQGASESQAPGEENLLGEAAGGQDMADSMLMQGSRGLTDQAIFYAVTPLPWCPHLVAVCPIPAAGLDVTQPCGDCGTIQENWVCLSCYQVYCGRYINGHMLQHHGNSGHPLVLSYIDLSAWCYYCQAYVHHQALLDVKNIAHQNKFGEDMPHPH
# Histone deacetylase 8 = target: T2, Histone deacetylase 8 (Homo sapiens, UniProt Q9BY41); test: Inhibition of HDAC8 (unknown origin)
# T2 sequence (Q9BY41 whole entry): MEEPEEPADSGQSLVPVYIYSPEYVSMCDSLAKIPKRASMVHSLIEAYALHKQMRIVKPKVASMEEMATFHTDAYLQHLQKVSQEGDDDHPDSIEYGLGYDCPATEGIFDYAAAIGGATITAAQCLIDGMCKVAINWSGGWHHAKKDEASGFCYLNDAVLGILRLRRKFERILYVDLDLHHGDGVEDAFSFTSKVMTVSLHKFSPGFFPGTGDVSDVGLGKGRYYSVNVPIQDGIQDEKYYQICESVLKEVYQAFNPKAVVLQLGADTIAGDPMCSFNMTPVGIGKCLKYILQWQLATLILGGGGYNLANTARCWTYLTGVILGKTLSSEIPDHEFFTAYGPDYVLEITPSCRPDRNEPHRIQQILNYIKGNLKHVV
# Histone deacetylase 1 = Histone deacetylase 1 (Homo sapiens, UniProt Q13547); test: Inhibition of HDAC1 (unknown origin)
# Histone deacetylase 1, sequence (Q13547 whole entry): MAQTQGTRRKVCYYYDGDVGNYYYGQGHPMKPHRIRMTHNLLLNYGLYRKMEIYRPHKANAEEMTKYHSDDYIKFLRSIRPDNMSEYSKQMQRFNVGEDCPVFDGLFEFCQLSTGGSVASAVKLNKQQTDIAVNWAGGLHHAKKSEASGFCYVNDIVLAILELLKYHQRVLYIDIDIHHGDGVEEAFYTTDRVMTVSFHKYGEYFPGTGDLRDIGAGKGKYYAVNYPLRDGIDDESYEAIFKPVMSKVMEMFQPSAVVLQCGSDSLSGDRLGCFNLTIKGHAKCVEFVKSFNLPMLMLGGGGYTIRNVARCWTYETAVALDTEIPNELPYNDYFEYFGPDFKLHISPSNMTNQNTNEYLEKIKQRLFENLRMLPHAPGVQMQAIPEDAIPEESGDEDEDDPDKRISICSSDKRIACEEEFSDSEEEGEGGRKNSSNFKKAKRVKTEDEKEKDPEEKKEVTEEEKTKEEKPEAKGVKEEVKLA
# BE(2)-C [4] = test: Antitumor activity against human BE2C cells xenografted in nude mouse assessed as tumor growth inhibition at 5 mg/kg, ip treated for every 3 days relative to control; assay type: functional; details: 72 h, time 3 day, read-out: TGI
# [5] = Metabolic stability in human liver microsomes assessed as intrinsic clearance; assay type: ADME, Microsome; details: read-out: CLH
# [6] = Metabolic stability in human liver microsomes assessed as compound remaining incubated for 60 mins; assay type: ADME, Microsome; details: microsomes, 1 h
# [7] = Metabolic stability in human liver microsomes assessed as compound remaining incubated for 20 mins; assay type: ADME, Microsome; details: liver microsomes, read-out: Stability
# [8] = Metabolic stability in human liver microsomes assessed as compound remaining incubated for 10 mins; assay type: ADME, Microsome; details: read-out: Stability
# [9] = Metabolic stability in human liver microsomes assessed as compound remaining incubated for 30 mins; assay type: ADME, Microsome; details: microsomes, 0.5 h
# [10] = Metabolic stability in human liver microsomes assessed as compound remaining incubated for 5 mins; assay type: ADME, Microsome; details: read-out: Stability
# [11] = Metabolic stability in human liver microsomes assessed as half life; assay type: ADME, Microsome
IC50 (A549) [nM],IC50 (U-87 MG) [nM],IC50 (HCT-116) [nM],SMILES,IC50 (BE(2)-C [2]) [nM],other results
,,,COc1ccc(/C=C\c2cc(OC)c(OC)c(OC)c2)cc1O [COMBRETASTATIN A4],,solubility at 10 min [1]: 1.04 µg/mL
173,23,304,COc1ccc([C@H]2[C@@H](C)C(=O)N2c2cc(OC)c(OC)c(OC)c2)cc1/C=C/C(=O)NO,317,
> 10000,> 10000,> 10000,COc1ccc([C@H]2[C@H](CNC(=O)CCCC(=O)NO)C(=O)N2c2cc(OC)c(OC)c(OC)c2)cc1O,> 10000,
479,> 10000,500,COc1ccc([C@H]2[C@H](CNC(=O)c3ccc(C(=O)NO)cc3)C(=O)N2c2cc(OC)c(OC)c(OC)c2)cc1O,303,
1260,2140,620,C=C1C(=O)N(c2cc(OC)c(OC)c(OC)c2)[C@H]1c1ccc(OC)c(/C=C/CC(=O)NO)c1,45,
> 10000,> 10000,> 10000,COc1ccc([C@H]2[C@H](COC(=O)CCCC(=O)NO)C(=O)N2c2cc(OC)c(OC)c(OC)c2)cc1O,> 10000,
7820,> 10000,464,COc1ccc([C@H]2[C@H](C)C(=O)N2c2cc(OC)c(OC)c(OC)c2)cc1OCCCCCC(=O)NO,7690,
> 10000,> 10000,> 10000,COc1ccc([C@H]2[C@H](CNC(=O)CCC(=O)NO)C(=O)N2c2cc(OC)c(OC)c(OC)c2)cc1O,> 10000,
84,72,60,C=C1C(=O)N(c2cc(OC)c(OC)c(OC)c2)[C@H]1c1ccc(OC)c(/C=C/C(=O)NO)c1,35,
16,> 10000,> 10000,COc1ccc([C@H]2[C@H](COC(=O)CCC(=O)NO)C(=O)N2c2cc(OC)c(OC)c(OC)c2)cc1O,43,IC50 [3]: 2410 nM; IC50 (Histone deacetylase 8): 288 nM; IC50 (Histone deacetylase 1): 301 nM
,,,CC(=O)O[C@H]1C(=O)[C@@]2(C)[C@H]([C@H](OC(=O)c3ccccc3)[C@]3(O)C[C@H](OC(=O)[C@H](O)[C@@H](NC(=O)c4ccccc4)c4ccccc4)C(C)=C1C3(C)C)[C@]1(OC(C)=O)CO[C@@H]1C[C@@H]2O [PACLITAXEL],,inhibition in vivo at 5 mg/kg (BE(2)-C [4]): 44%
3650,4400,> 10000,COc1ccc([C@H]2[C@H](C)C(=O)N2c2cc(OC)c(OC)c(OC)c2)cc1OCCCC(=O)NO,1810,
54,56,82,COc1ccc([C@H]2[C@H](C)C(=O)N2c2cc(OC)c(OC)c(OC)c2)cc1OCC(=O)NO,30,
,,,O=C(CCCCCCC(=O)Nc1ccccc1)NO [VORINOSTAT],2110,CLint scaled [5]: < 8.6 mL/min/kg; solubility at 10 min [1]: 91.7 µg/mL; Stability [6]: 92.8%; remaining at 20 min [7]: 99%; remaining at 10 min [8]: 98.4%; Stability [9]: 105.7%; remaining at 5 min [10]: 96.4%; t1/2 [11]: 2.42 h
326,432,397,COc1ccc([C@H]2[C@H](COC(=O)c3ccc(C(=O)O)cc3)C(=O)N2c2cc(OC)c(OC)c(OC)c2)cc1O,776,
2340,> 10000,> 10000,COc1ccc([C@H]2[C@H](C)C(=O)N2c2cc(OC)c(OC)c(OC)c2)cc1OCCCCC(=O)NO,3970,

SMILES,IC50 (A549) [nM],IC50 (U-87 MG) [nM],IC50 (HCT-116) [nM],IC50 (BE(2)-C [2]) [nM],other results
C=C1C(=O)N(c2cc(OC)c(OC)c(OC)c2)[C@H]1c1ccc(OC)c(O)c1,128,143,234,186,IC50 (Tubulin): 6600 nM
